{"source": "patent US7355047B2", "about": "“Substituted quinolone carboxylic acids, their derivatives, site of action, and uses thereof” (The Regents of the University of California, priority 2002, dated 2008)", "key": {"[1]": {"test_system": "GABAA receptor complex (GRC)", "test": "[35S]TBPS binding, rat cerebellum", "conditions": "2 nM [35S]TBPS, 30 μM furosemide, FIG. 14"}, "[2]": {"test_system": "GABA-gated chloride channels", "test": "Electrophysiological Assay 1, whole cell patch-clamp of hippocampal neurons", "format": "cell-based", "conditions": "C3 5 μM; GABA 10 μM; embryonic rat hippocampal neurons; FIG. 1", "experimental": "Pregnant Sprague-Dawley rats, incubating embryos of 17-19 days gestation, were killed by cervical dislocation. The embryos were removed under aseptic conditions and the brains quickly excised and placed in Hank's balanced salt solution (HBSS, Gibco) at ambient room temperature (18-22° C.). The hippocampi were dissected out and chopped into fragments (˜2 mm^3) and transferred into an enzyme solution containing (in mM): NaCl 116, KCl 5.4, NaHCO3 26, NaH2PO4 1, CaCl2 1.5, MgSO4 1, EDTA 0.5, glucose 25, cysteine 1, and papain 20 U/ml (Sigma) and incubated at 37° C., 5% CO2, 100% relative humidity for 1 hr. Tissue fragments were washed in HBSS containing 1 mg/ml of bovine serum albumin (BSA) and 1 mg/ml of ovomucoid (both Sigma). Tissue was transferred into a further 3-4 ml of this solution and gently triturated into a single cell suspension using a fire-polished Pasteur pipette. The single cell suspension was layered on to 5 ml HBSS containing 10 mg/ml of BSA and 10 mg/ml of ovomucoid and centrifuged at 100× g for 10 min. […]\nAgonist evoked membrane currents were recorded from hippocampal neurons using the whole cell configuration of the patch-clamp technique. […] Agonist-evoked whole cell currents were measured at their peak. Responses in the presence of drugs expressed as the arithmetic mean ±SEM of responses in the absence (control) or drugs."}, "GABAA receptor": {"test_system": "GABAA receptor", "test": "[3H]Muscimol binding assay, rat cortex", "conditions": "5 nM [3H]muscimol, FIG. 7", "experimental": "[^3H]Muscimol binding assay: The cortex from male Sprague-Dawley rats (160-200 g) was removed immediately after euthanizing and dissected over ice. The tissue was homogenized in 15 vol of 0.32M sucrose followed by centrifugation for 10 min at 1000× g. The supernatant was transferred to a 38 mL polycarbonate tube (Beckman Instruments, Palo Alto Calif.) and centrifuged at 20,000× g for 20 min. The membrane pellet was resuspended in 10 vol of dH2O and centrifuged at 8,000× g for 20 min. The resulting pellet was washed with dH2O once and with Na^+-free assay buffer (40 mM KH2PO4, 100 mM KCl, pH 7.4). The pellet was resuspended in 35 mL of Na^+-free assay buffer, incubated at 37° C. for thirty minutes and then centrifuged 31,000× g for twenty minutes. The final pellet was resuspended in 10 vol of Na^+-free assay buffer. Protein concentration of membrane preparations was ˜1 mg/mL by BCA reagent protein assay. Aliquots of membrane suspension (100 μL) were incubated in Na^+-free assay buffer with 5 nM [^3H]muscimol (25 Ci/mmol, New England Nuclear, Boston, Mass.) and 5 μL of dimethylsulfoxide (DMSO) or drug dissolved in DMSO. The final volume of the incubation medium was 1 mL. […] Filter-bound radioactivity was quantified by LSC after an overnight extraction. The data were evaluated by nonlinear regression to obtain IC50 and EC50 values."}}}
{"compound": "CCn1cc(C(=O)O)c(=O)c2cc(NC3CCCc4ccccc43)c(Cl)cc21", "note": "(stereo not drawn) [compound 3, 7-chloro-1-ethyl-6-(1,2,3,4-tetrahydronaphthyl-1-amino)-4-oxo-1,4-dihydroquinoline-3-carboxylic acid]", "values": [{"measurement": "effect on [35S]TBPS binding in absence or presence of furosemide", "setting": "[1]", "value": "does not act directly at the same site on the GRC as the loop-diuretic furosemide"}, {"measurement": "potentiating effect on GABA induced chloride currents", "setting": "[2]", "value": "positive efficacy modulator of GABA-gated chloride channels"}, {"measurement": "effect on [3H]muscimol binding to the GABAA receptor", "setting": "GABAA receptor", "value": "does not act directly on the GABAA receptor"}]}
